# Data: patent publication US20260248860A1, “LIVER DISEASE REGULATORY FORMULATION AND USE THEREOF” (SHANGHAI CELLIVER BIOTECHNOLOGY CO., LTD., priority 2021, published 2026)
# System: ConA-stimulated mouse spleen cells
# Assay: ConA-stimulated mouse spleen cell proliferation (CFSE, flow cytometry)
# Assay type: cell-based
# Conditions: final concentration 10 nM, 72 hours, read-out: inhibition rate on the proliferation of spleen cells
# Method: A method for preparing a suspension of mouse spleen cells added with a stimulator was: 1-week-old C57BL/6 mice were sacrificed by neck dislocation, then the spleen was taken, ground with a 200-mesh sieve, and then rinsed with a lymphatic separation fluid, and the separation solution containing lymphocytes was collected, resuspended by using a RPMI-1640 complete medium containing 10% fetal bovine serum and centrifuged under a centrifugal force of 800 g at low temperature for 30 minutes; and after completion of centrifugation, the lymphocyte layer was pipetted, then resuspended with a RPMI-1640 complete medium containing 10% fetal bovine serum, and then centrifuged under a centrifugal force of 250 g for 10 minutes at low temperature. The obtained lymphocyte layer was resuspended with the RPMI-1640 complete medium containing 10% fetal bovine serum again, and added with a concanavalin A(ConA) suspension resuspended with the RPMI-1640 complete medium containing 10% fetal bovine serum as a stimulator. […]
compound,measurement,value
"C=CC[C@@H]1/C=C(\C)C[C@H](C)C[C@H](OC)[C@H]2O[C@@](O)(C(=O)C(=O)N3CCCC[C@H]3C(=O)O[C@H](/C(C)=C/[C@@H]3CC[C@@H](O)[C@H](OC)C3)[C@H](C)[C@@H](O)CC1=O)[C@H](C)C[C@@H]2OC [FK506, tacrolimus]",inhibition at 0.01 µM,82%
